This is an account of results in patent US20200261440A1, “ZINC IONOPHORES AND USES THEREOF” (THE UNIVERSITY OF QUEENSLAND, priority 2017, published 2020).

What all share (assay): MIC by broth microdilution (CLSI)
Assay [1] relates to Klebsiella pneumoniae strain MS6771. It counts as cell-based. The conditions noted are these: Klebsiella pneumoniae, read-out: MIC.
Assay [2] concerns Methicillin-resistant Staphylococcus aureus (MRSA) strain USA300. The following applies: for MIC: Staphylococcus aureus.
For assay [3], the system named is Streptococcus pneumoniae 23F. It counts as cell-based. The following applies: for MIC: Streptococcus pneumoniae, 23F, read-out: MIC.
Assay [4] concerns Vancomycin-resistant Enterococci (VRE) clinical isolate RBWH1. It counts as cell-based, Enterococcus. The following applies: Enterococcus, VRE, read-out: MIC. As for the experimental part:
J. Path. Bact. […] Proc. Soc.
MIC assays were carried out in biological triplicates.
M100 Performance Standards for Antimicrobial Susceptibility Testing, 27th Edition.

Setting [5] is: MS6771, K. pneumoniae, RA-HQ-12: 0 μM, Zn: 0 μM.
[6] abbreviates: MS6771, K. pneumoniae, RA-HQ-12: 16 μM, Zn: 64 μM.
The mark [7] stands for this setting: MS6771, K. pneumoniae, RA-HQ-12: 16 μM.
Where [8] appears, read: MS6771, K. pneumoniae, Zn: 64 μM.
[9] abbreviates: MS6771, Klebsiella pneumoniae, CQ: 0 μM, Zinc: 0 μM.
The mark [10] stands for this setting: MS6771, Klebsiella pneumoniae, CQ: 64 μM, Zinc: 256 μM.
The mark [11] stands for this setting: MS6771, Klebsiella pneumoniae, CQ: 64 μM.
The mark [12] stands for this setting: MS6771, Klebsiella pneumoniae, PBT2: 0 μM, Zinc: 0 μM.
Setting [13] is: MS6771, Klebsiella pneumoniae, PBT2: 64 μM, Zinc: 256 μM.
The mark [14] stands for this setting: MS6771, Klebsiella pneumoniae, PBT2: 64 μM.
Setting [15] is: MS6771, Klebsiella pneumoniae, Zinc: 256 μM (CQ panel).
Setting [16] is: MS6771, Klebsiella pneumoniae, Zinc: 256 μM (PBT2 panel).
The mark [17] stands for this setting: MRSA|USA300, MRSA, RA-HQ-12: 0 μM, Zn: 0 μM, oxacillin with 2% NaCl.

The structures appear in SMILES notation. Values after ≈ are worked out from the molar mass of the structure shown. Read-outs that look alike come from different tables or passages of the source.

The MIC is the smallest concentration in the dilution series that meets the test's criterion for growth inhibition. Turning to `CC1(C)S[C@@H]2[C@H](NC(=O)[C@H](N)c3ccccc3)C(=O)N2[C@H]1C(=O)O` [Ampicillin, ampicillin], the minimum inhibitory concentration (MIC) in assay [1] (setting [5]), in assay [1] (setting [6]), in assay [1] (setting [7]), in assay [1] (setting [8]), in assay [1] (setting [9]) and in assay [1] (setting [10]) was above 128 µg/mL throughout. Moreover, the MIC in assay [1] (setting [11]), in assay [1] (setting [12]), in assay [1] (setting [13]), in assay [1] (setting [14]), in assay [1] (setting [15]) and in assay [1] (setting [16]) was above 128 µg/mL in each case. Further, the MIC is above 128 µg/mL in assay [2] (MRSA USA300, CQ: 0 μM, Zinc: 0 μM); above 128 µg/mL in assay [2] (MRSA USA300, CQ: 1 μM); 1 µg/mL (≈ 2.86 µM) in assay [2] (MRSA USA300, CQ: 1 μM, Zinc: 32 μM); above 128 µg/mL in assay [2] (MRSA USA300, PBT2: 0 μM, Zinc: 0 μM); above 128 µg/mL in assay [2] (MRSA USA300, PBT2: 2 μM); 2 µg/mL (≈ 5.72 µM) in assay [2] (MRSA USA300, PBT2: 2 μM, Zinc: 50 μM). Further, the MIC in assay [2] (MRSA USA300, Zinc: 32 μM) is above 128 µg/mL; in assay [2] (MRSA USA300, Zinc: 50 μM) it was above 128 µg/mL; in assay [2] (setting [17]), above 128 µg/mL; in assay [2] (MRSA|USA300, MRSA, RA-HQ-12: 3.5 μM, Zn: […], oxacillin with 2% NaCl), above 128 µg/mL; in assay [2] (MRSA|USA300, MRSA, RA-HQ-12: 3.5 μM, oxacillin with 2% NaCl), above 128 µg/mL; in assay [3] (PBT2: 0 μM, Zinc: 0 μM) it was 8 µg/mL (≈ 22.9 µM). Besides, the MIC was 1 µg/mL (≈ 2.86 µM) in assay [3] (PBT2: 8 μM, Zinc: 32 μM); 8 µg/mL (≈ 22.9 µM) in assay [3] (PBT2: 8 μM); 8 µg/mL (≈ 22.9 µM) in assay [3] (Zinc: 32 μM); above 128 µg/mL in assay [4] (RA-HQ-12: 3.5 μM, Zn: […]); above 128 µg/mL in assay [4] (RA-HQ-12: 3.5 μM); above 128 µg/mL in assay [4] (Zn: […] (RA-HQ-12 panel)). The MIC in assay [4] (RA-HQ-12: 0 μM, Zn: 0 μM) is above 128 µg/mL. Also, in assay [2] (MRSA USA300, addition of sub-inhibitory PBT2+zinc(II) ions), the “antibiotic sensitivity of resistant strain” value is reported as “became sensitive”.

With `O=C(N[C@H](CO)[C@H](O)c1ccc([N+](=O)[O-])cc1)C(Cl)Cl` [Chloramphenicol, chloramphenicol], the MIC is 128 µg/mL (≈ 396 µM) in assay [1] (setting [9]); 64 µg/mL (≈ 198 µM) in assay [1] (setting [10]); 64 µg/mL (≈ 198 µM) in assay [1] (setting [11]); 128 µg/mL (≈ 396 µM) in assay [1] (setting [12]); 128 µg/mL (≈ 396 µM) in assay [1] (setting [13]); 128 µg/mL (≈ 396 µM) in assay [1] (setting [14]). Besides, the MIC was 128 µg/mL (≈ 396 µM) in assay [1] (setting [15]); 128 µg/mL (≈ 396 µM) in assay [1] (setting [16]); 16 µg/mL (≈ 49.5 µM) in assay [3] (PBT2: 0 μM, Zinc: 0 μM); 2 µg/mL (≈ 6.19 µM) in assay [3] (PBT2: 8 μM, Zinc: 32 μM); 16 µg/mL (≈ 49.5 µM) in assay [3] (PBT2: 8 μM); 16 µg/mL (≈ 49.5 µM) in assay [3] (Zinc: 32 μM). For the same compound, in assay [3] (addition of sub-inhibitory PBT2+zinc(II) ions), the “antibiotic sensitivity of resistant strain” value is “became sensitive”.

In the case of `CN(C)[C@@H]1C(O)=C(C(N)=O)C(=O)[C@@]2(O)C(O)=C3C(=O)c4c(O)cccc4[C@@](C)(O)[C@H]3C[C@@H]12` [Tetracycline, tetracycline], the MIC in assay [1] (setting [5]) is 32 µg/mL (≈ 72 µM); in assay [1] (setting [6]), 32 µg/mL (≈ 72 µM); in assay [1] (setting [7]), 32 µg/mL (≈ 72 µM); in assay [1] (setting [8]) it was 32 µg/mL (≈ 72 µM); in assay [1] (setting [9]), 32 to 64 µg/mL (≈ 72 to 144 µM); in assay [1] (setting [10]), 4 to 8 µg/mL (≈ 9 to 18 µM). Further, the MIC in assay [1] (setting [11]) is 16 µg/mL (≈ 36 µM); in assay [1] (setting [12]), 16 to 32 µg/mL (≈ 36 to 72 µM); in assay [1] (setting [13]), 4 µg/mL (≈ 9 µM); in assay [1] (setting [14]), 8 µg/mL (≈ 18 µM); in assay [1] (setting [15]) it was 8 µg/mL (≈ 18 µM); in assay [1] (setting [16]), 8 µg/mL (≈ 18 µM). Besides, the MIC was 0.5 µg/mL (≈ 1.13 µM) in assay [2] (setting [17]); 32 µg/mL (≈ 72 µM) in assay [3] (PBT2: 0 μM, Zinc: 0 μM); 1 µg/mL (≈ 2.25 µM) in assay [3] (PBT2: 8 μM, Zinc: 32 μM); 32 µg/mL (≈ 72 µM) in assay [3] (PBT2: 8 μM); 32 µg/mL (≈ 72 µM) in assay [3] (Zinc: 32 μM); 1 to 2 µg/mL (≈ 2.25 to 4.5 µM) in assay [4] (VRE RBWH1, CQ: 2.5 μM, Zinc: 32 μM).
